Laboratory results: patent US12559492B2, “BRAF degraders” (C4 Therapeutics, Inc., priority 2020, dated 2026)

Biological target: BRAF^V600E protein (Homo sapiens, UniProt P15056, V600E)
Test: HiBiT cellular BRAF V600E degradation assay
Assay type: cell-based
Conditions: 24 h incubation; for DC50: A375.10 cells (HiBiT tag knocked in at N-terminal of BRAF V600E), concentration at which 50% of total cellular BRAF V600E is degraded; for Emax: A375.10 cells, Emax = amount of residual protein remaining in the cell after compound treatment, read-out: HiBit 24 h Emax

BRAF^V600E protein, sequence (P15056 whole entry V600E): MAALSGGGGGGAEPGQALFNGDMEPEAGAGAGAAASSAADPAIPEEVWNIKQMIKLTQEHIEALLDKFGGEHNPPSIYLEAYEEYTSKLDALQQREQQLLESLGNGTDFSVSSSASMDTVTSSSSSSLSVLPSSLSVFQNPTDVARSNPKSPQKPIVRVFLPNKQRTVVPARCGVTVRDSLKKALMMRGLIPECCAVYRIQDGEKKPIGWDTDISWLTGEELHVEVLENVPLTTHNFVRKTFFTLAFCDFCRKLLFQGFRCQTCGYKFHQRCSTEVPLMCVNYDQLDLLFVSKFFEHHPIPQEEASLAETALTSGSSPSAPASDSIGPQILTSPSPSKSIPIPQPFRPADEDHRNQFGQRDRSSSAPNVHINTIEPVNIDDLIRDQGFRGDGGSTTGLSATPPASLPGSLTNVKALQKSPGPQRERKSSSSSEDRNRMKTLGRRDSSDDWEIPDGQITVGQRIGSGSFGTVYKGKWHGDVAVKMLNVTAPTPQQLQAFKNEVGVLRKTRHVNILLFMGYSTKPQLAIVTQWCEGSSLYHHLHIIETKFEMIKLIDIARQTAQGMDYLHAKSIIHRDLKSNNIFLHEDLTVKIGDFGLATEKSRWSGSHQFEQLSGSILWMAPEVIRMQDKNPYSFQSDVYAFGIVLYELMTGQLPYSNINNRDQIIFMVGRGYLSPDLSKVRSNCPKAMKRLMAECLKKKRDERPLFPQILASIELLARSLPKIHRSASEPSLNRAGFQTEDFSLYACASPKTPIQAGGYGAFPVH

DC50 [nM]	Emax [%]	SMILES
13.9	8.18	CCN(C)S(=O)(=O)Nc1ccc(F)c(C(=O)c2c[nH]c3ncc(-c4ccc(N5CCN(C(=O)CC6(O)CCN(c7ccc(NC8CCC(=O)NC8=O)cc7F)CC6)CC5)c(C)c4)cc23)c1F (stereo not shown) [Example 192, 5-[4-[4-[2-[1-[4-[(2,6-dioxo-3-piperidyl)amino]-2-fluoro-phenyl]-4-hydroxy-4-piperidyl]acetyl]piperazin-1-yl]-3-methyl-phenyl]-3-[3-[[ethyl(methyl)sulfamoyl]amino]-2,6-difluoro-benzoyl]-1H-pyrrolo[2,3-b]pyridine]
1.7	7.39	CCN(C)S(=O)(=O)Nc1ccc(F)c(C(=O)c2c[nH]c3ncc(-c4ccc(N5CCN(C(=O)CC6(O)CCN(c7ccc8c(N9CCC(=O)NC9=O)nn(C)c8c7)CC6)CC5)nc4)cc23)c1F [Example 193, 3-(2,4-dioxohexahydropyrimidin-1-yl)-6-[4-[2-[4-[5-[3-[3-[[ethyl(methyl)sulfamoyl]amino]-2,6-difluoro-benzoyl]-1H-pyrrolo[2,3-b]pyridin-5-yl]-2-pyridyl]piperazin-1-yl]-2-oxo-ethyl]-4-hydroxy-1-piperidyl]-1-methyl-indazole]
4.5	8.29	CCN(C)S(=O)(=O)Nc1ccc(F)c(C(=O)c2c[nH]c3ncc(-c4cnc(N5CCN(C(=O)CC6(O)CCN(c7ccc(N8CCC(=O)NC8=O)cc7F)CC6)CC5)c(F)c4)cc23)c1F [Example 194, 5-[6-[4-[2-[1-[4-(2,4-dioxohexahydropyrimidin-1-yl)-2-fluoro-phenyl]-4-hydroxy-4-piperidyl]acetyl]piperazin-1-yl]-5-fluoro-3-pyridyl]-3-[3-[[ethyl(methyl)sulfamoyl]amino]-2,6-difluoro-benzoyl]-1H-pyrrolo[2,3-b]pyridine]
6.23	7.6	CCN(C)S(=O)(=O)Nc1ccc(F)c(C(=O)c2c[nH]c3ncc(-c4cc(F)c(N5CCN(C(=O)CC6(O)CCN(c7ccc(NC8CCC(=O)NC8=O)cc7F)CC6)CC5)c(F)c4)cc23)c1F (stereo not shown) [Example 195, 5-[4-[4-[2-[1-[4-[(2,6-dioxo-3-piperidyl)amino]-2-fluoro-phenyl]-4-hydroxy-4-piperidyl]acetyl]piperazin-1-yl]-3,5-difluoro-phenyl]-3-[3-[[ethyl(methyl)sulfamoyl]amino]-2,6-difluoro-benzoyl]-1H-pyrrolo[2,3-b]pyridine]
1.14	6.81	CCN(C)S(=O)(=O)Nc1ccc(F)c(C(=O)c2c[nH]c3ncc(-c4cnc(N5CC6(C5)CC(O)(C5CCN(c7ccc(NC8CCC(=O)NC8=O)cc7F)CC5)C6)nc4)cc23)c1F (stereo not shown) [Example 196, 5-[2-[6-[1-[4-[(2,6-dioxo-3-piperidyl)amino]-2-fluoro-phenyl]-4-piperidyl]-6-hydroxy-2-azaspiro[3.3]heptan-2-yl]pyrimidin-5-yl]-3-[3-[[ethyl(methyl)sulfamoyl]amino]-2,6-difluoro-benzoyl]-1H-pyrrolo[2,3-b]pyridine]
7.36	8.11	CCN(C)S(=O)(=O)Nc1ccc(F)c(C(=O)c2c[nH]c3ncc(-c4ccc(N5CCN(C(=O)CC6(O)CCN(c7ccc(NC8CCC(=O)NC8=O)cc7C(F)F)CC6)CC5)nc4)cc23)c1F (stereo not shown) [Example 197, 5-[6-[4-[2-[1-[2-(difluoromethyl)-4-[(2,6-dioxo-3-piperidyl)amino]phenyl]-4-hydroxy-4-piperidyl]acetyl]piperazin-1-yl]-3-pyridyl]-3-[3-[[ethyl(methyl)sulfamoyl]amino]-2,6-difluoro-benzoyl]-1H-pyrrolo[2,3-b]pyridine]
2.42	6.19	CCN(C)S(=O)(=O)Nc1ccc(F)c(C(=O)c2c[nH]c3ncc(-c4ccc(N5CCN(C(=O)CC6(O)CCN(c7ccc(NC8CCC(=O)NC8=O)cc7F)CC6)CC5)c(F)c4)cc23)c1F (stereo not shown) [Example 198, 5-[4-[4-[2-[1-[4-[(2,6-dioxo-3-piperidyl)amino]-2-fluoro-phenyl]-4-hydroxy-4-piperidyl]acetyl]piperazin-1-yl]-3-fluoro-phenyl]-3-[3-[[ethyl(methyl)sulfamoyl]amino]-2,6-difluoro-benzoyl]-1H-pyrrolo[2,3-b]pyridine]
28.3	7.17	CCN(C)S(=O)(=O)Nc1ccc(F)c(C(=O)c2c[nH]c3ncc(-c4cnc(N5CC6(CC(C7CCN(c8ccc(NC9CCC(=O)NC9=O)cc8F)CC7)C6)C5)nc4)cc23)c1F (stereo not shown) [Example 199, 5-[2-[6-[1-[4-[(2,6-dioxo-3-piperidyl)amino]-2-fluoro-phenyl]-4-piperidyl]-2-azaspiro[3.3]heptan-2-yl]pyrimidin-5-yl]-3-[3-[[ethyl(methyl)sulfamoyl]amino]-2,6-difluoro-benzoyl]-1H-pyrrolo[2,3-b]pyridine]
4.19	6.67	CCN(C)S(=O)(=O)Nc1ccc(Cl)c(C(=O)c2c[nH]c3ncc(-c4ccc(N5CCN(C(=O)CC6(O)CCN(c7ccc(NC8CCC(=O)NC8=O)cc7F)CC6)CC5)nc4)cc23)c1F (stereo not shown) [Example 201, 3-[6-chloro-3-[[ethyl(methyl)sulfamoyl]amino]-2-fluoro-benzoyl]-5-[6-[4-[2-[1-[4-[(2,6-dioxo-3-piperidyl)amino]-2-fluoro-phenyl]-4-hydroxy-4-piperidyl]acetyl]piperazin-1-yl]-3-pyridyl]-1H-pyrrolo[2,3-b]pyridine]
2.1	7.44	CCN(C)S(=O)(=O)Nc1ccc(F)c(C(=O)c2c[nH]c3ncc(-c4ccc(N5CCN(C(=O)CC6(O)CCN(c7ccc8c(N9CCC(=O)NC9=O)nn(C)c8c7)CC6)CC5)cc4)cc23)c1F [Example 202, 3-(2,4-dioxohexahydropyrimidin-1-yl)-6-[4-[2-[4-[4-[3-[3-[[ethyl(methyl)sulfamoyl]amino]-2,6-difluoro-benzoyl]-1H-pyrrolo[2,3-b]pyridin-5-yl]phenyl]piperazin-1-yl]-2-oxo-ethyl]-4-hydroxy-1-piperidyl]-1-methyl-indazole]
2.28	5.13	CCN(C)S(=O)(=O)Nc1ccc(F)c(C(=O)c2c[nH]c3ncc(-c4cnc(N5CC6(C5)CN(C5CCN(c7ccc(NC8CCC(=O)NC8=O)cc7F)CC5)C6)nc4)cc23)c1F (stereo not shown) [Example 203, 5-[2-[2-[1-[4-[(2,6-dioxo-3-piperidyl)amino]-2-fluoro-phenyl]-4-piperidyl]-2,6-diazaspiro[3.3]heptan-6-yl]pyrimidin-5-yl]-3-[3-[[ethyl(methyl)sulfamoyl]amino]-2,6-difluoro-benzoyl]-1H-pyrrolo[2,3-b]pyridine]
3.8	8.6	CCN(C)S(=O)(=O)Nc1ccc(F)c(C(=O)c2c[nH]c3ncc(-c4cnc(N5CCN(C(=O)CC6(O)CCN(c7ccc(NC8CCC(=O)NC8=O)cc7C(F)F)CC6)CC5)nc4)cc23)c1F (stereo not shown) [Example 204, 5-[2-[4-[2-[1-[2-(difluoromethyl)-4-[(2,6-dioxo-3-piperidyl)amino]phenyl]-4-hydroxy-4-piperidyl]acetyl]piperazin-1-yl]pyrimidin-5-yl]-3-[3-[[ethyl(methyl)sulfamoyl]amino]-2,6-difluoro-benzoyl]-1H-pyrrolo[2,3-b]pyridine]
2.34	6.63	CCN(C)S(=O)(=O)Nc1ccc(F)c(C(=O)c2c[nH]c3ncc(-c4cnc(N5CCN(C(=O)CC6(O)CCN(c7ccc(C8CCC(=O)NC8=O)cc7F)CC6)CC5)c(F)c4)cc23)c1F (stereo not shown) [Example 205, 5-[6-[4-[2-[1-[4-(2,6-dioxo-3-piperidyl)-2-fluoro-phenyl]-4-hydroxy-4-piperidyl]acetyl]piperazin-1-yl]-5-fluoro-3-pyridyl]-3-[3-[[ethyl(methyl)sulfamoyl]amino]-2,6-difluoro-benzoyl]-1H-pyrrolo[2,3-b]pyridine]
2.28	6.9	CCN(C)S(=O)(=O)Nc1ccc(F)c(C(=O)c2c[nH]c3ncc(-c4cnc(N5CCN(C(=O)CC6(O)CCN(c7ccc(N[C@H]8CCC(=O)NC8=O)cc7Cl)CC6)CC5)nc4)cc23)c1F [Example 206, 5-[2-[4-[2-[1-[2-chloro-4-[[(3S)-2,6-dioxo-3-piperidyl]amino]phenyl]-4-hydroxy-4-piperidyl]acetyl]piperazin-1-yl]pyrimidin-5-yl]-3-[3-[[ethyl(methyl)sulfamoyl]amino]-2,6-difluoro-benzoyl]-1H-pyrrolo[2,3-b]pyridine]
1.23	6.98	CCN(C)S(=O)(=O)Nc1cc(F)cc(C(=O)c2c[nH]c3ncc(-c4ccc(N5CCN(C(=O)CC6(O)CCN(c7ccc(NC8CCC(=O)NC8=O)cc7F)CC6)CC5)nc4)cc23)c1F (stereo not shown) [Example 207, 5-[6-[4-[2-[1-[4-[(2,6-dioxo-3-piperidyl)amino]-2-fluoro-phenyl]-4-hydroxy-4-piperidyl]acetyl]piperazin-1-yl]-3-pyridyl]-3-[3-[[ethyl(methyl)sulfamoyl]amino]-2,5-difluoro-benzoyl]-1H-pyrrolo[2,3-b]pyridine]
1.73	7.34	CCN(C)S(=O)(=O)Nc1ccc(F)c(C(=O)c2c[nH]c3ncc(-c4ccc(N5CCN(C(=O)CC6(O)CCN(c7ccc(N[C@H]8CCC(=O)NC8=O)cc7Cl)CC6)CC5)nc4)cc23)c1F [Example 208, 5-[6-[4-[2-[1-[2-chloro-4-[[(3S)-2,6-dioxo-3-piperidyl]amino]phenyl]-4-hydroxy-4-piperidyl]acetyl]piperazin-1-yl]-3-pyridyl]-3-[3-[[ethyl(methyl)sulfamoyl]amino]-2,6-difluoro-benzoyl]-1H-pyrrolo[2,3-b]pyridine]
0.76	5.52	CCN(C)S(=O)(=O)Nc1ccc(F)c(C(=O)c2c[nH]c3ncc(-c4cnc(N5CCN(C(=O)CC6(O)CCN(c7ccc(N[C@@H]8CCC(=O)NC8=O)cc7Cl)CC6)CC5)nc4)cc23)c1F [Example 209, 5-[2-[4-[2-[1-[2-chloro-4-[[(3R)-2,6-dioxo-3-piperidyl]amino]phenyl]-4-hydroxy-4-piperidyl]acetyl]piperazin-1-yl]pyrimidin-5-yl]-3-[3-[[ethyl(methyl)sulfamoyl]amino]-2,6-difluoro-benzoyl]-1H-pyrrolo[2,3-b]pyridine]
